# In US11819561B2, “Oral care compositions” (Colgate-Palmolive Company, priority 2020, dated 2023):
# How the values were obtained:
# bacteria in saliva = experiment: Alamar blue test for antimicrobial activity; assay type: cell-based
# Procedure: Antimicrobial activity of the formulations is tested to determine whether the chlorhexidine is fully active. The Alamar blue test for antimicrobial activity is conducted according to standard methodology. Bacteria inoculum is prepared by diluting fresh saliva 2× with deionized water, followed by centrifugation at 8000 G/25° C. for 10 min, and decanting the upper clear liquid into a glass jar. The negative control (A) is distilled water. The positive control (B) is 2 wt. % chlorhexidine gluconate solution. The APG control (C) is a 10 wt. % decyl glucoside solution. The two test solutions are: (D) 2 wt. % chlorhexidine gluconate with 10 wt. % decyl glucoside; and (E) 2 wt. % chlorhexidine gluconate with 10 wt. % decyl glucoside solution, with 14% w/w STPP added. Each of the test solutions is combined with saliva in a weight ratio of 1:10 (solution to saliva). The pH of each mixture is adjusted to 5.5-7 by adding citric acid. The mixtures are vortexed for 1 minute, and incubated at 37° C. for 30 minutes. Subsequent addition of 200 μL of Alamar Blue dye immediately produced blue color in all samples and pictures were taken for comparison at different time intervals (0 hours, 24 hours, 48 hours) to show the evolution of color development. A blue color indicates bacterial kill in saliva and no bacterial growth, while a pink color indicates viable bacteria are still present. […]
# [1] = Visual observation of formulation clarity and precipitation; assay type: physicochemical; details: Example 4, other cationic surfactants
# Procedure: For the following experiments, a 0.2 wt. % aqueous solution of chlorhexidine gluconate, and a 10.0 wt. % aqueous solution of decyl glucoside (“APG”) are prepared. The pH of the decyl glucoside solution is adjusted to 5.5-7.0 using citric acid. For each formulation, the appropriate amount of the decyl glucoside solution is added to appropriate amounts of the chlorhexidine stock solution. STPP is then added to each formulation, and the mixture is agitated by a bath sonicator until no large solids remained. Additional citric acid is added to adjust the pH to 5.5-7.0. The formulations are then agitated for an additional five minutes, then allowed to equilibrate for 30 minutes before observation and transmittance measurements. For the following experiments, a 0.2 wt. % aqueous solution of chlorhexidine gluconate, and a 2.0 wt. % aqueous solution of CAPB are prepared. STPP is added to the chlorhexidine solution to provide 1.6 wt. % STPP. For each formulation, the appropriate amount of the CAPB solution is added to appropriate amounts of the chlorhexidine/STPP stock solution. The mixture is agitated by a bath sonicator, and then additional citric acid is added to adjust the pH to 6.12-6.19. The formulations are then agitated for an additional five minutes, then allowed to equilibrate for 18 hours before observation. […]
molecule,measurement,setting,value
"CCCCCCCCCCO[C@@H]1O[C@H](CO)[C@@H](O)[C@H](O)[C@H]1O [Sample (C) (APG contr), decyl glucoside]",Alamar Blue color change,bacteria in saliva; Example 1 (APG),color change from blue to pink after two days
benzalkonium chloride,Stabilization effect on CHX/STPP,[1],stabilization effect was not observed
cocamidopropyl betaine [Sample (C) (CAPB contr)],Alamar Blue color change,bacteria in saliva; Example 2 (CAPB),color change from blue to pink after two days
